This is an account of results in patent publication US5234907A, “Synthetic vasoactive intestinal peptide analogs” (Hoffmann-La Roche Inc., priority 1991, dated 1993).

In one test the test system is guinea pigs. Put plainly: In vivo bronchodilator activity by tracheal instillation against histamine-induced bronchoconstriction. The note with it: 100 μl, anesthetized male Hartley guinea pigs, histamine challenge 50 μg/kg i.v., inhibition of tracheal pressure increase. Details: species or system guinea pig. On the procedure:
The in vivo bronchodilator activity of VIP analogs in guinea pigs was assessed by the tracheal instillation route of administration. This technique utilized male guinea pigs (Hartley strain, Charles River) weighing 400-600 g. Animals were anesthetized with urethane (2 g/kg) intraperitoneally and a polyethylene cannula was inserted into the jugular vein for intravenous drug administration.
The animals were tracheotomized and dosing solutions of distilled water or test compound dissolved in distilled water were administered into the trachea, approximately three-quarter the distance to the carina with a pipette. The concentration of the dosing solution was adjusted to deliver a constant volume of 100 μl. The animals were placed supine for one minute to aid drug delivery to the lung. One minute later, spontaneous breathing was arrested with succinylcholine chloride (1.2 mg/kg) administered intravenously, and the animals were ventilized with a Harvard Model 680 small animal respirator set at 40 breaths/min and 4.0 cm^3 stoke volume. The animals were challenged with a maximal constrictory dose of histamine (50 μg/kg, i.v.) and tracheal pressure (cm of water) was recorded from a Statham pressure transducer (P 32 AA).
The change in tracheal pressure was averaged for at least 3 control and 3 drug-treated animals and percent inhibition was calculated. The relative potency of compounds administered by the instillation route was determined by administering various doses of test compound and calculating the median inhibitory dose (ID50 value). The ID50 was determined from log dose-reasons curves generated by at least 3 doses that caused inhibitory effects between 10% and 90%. The correlation coefficient for the regression line of each antagonist was always greater than 0.95.
For determination of the time course of inhibition for various compounds, the time between administration of compound and challenge with histamine was varied. The time course of activity was calculated as the time when inhibition decreased to 40%.

The test system of test [1] is guinea pig tracheal smooth muscle. As to the kind of experiment: Tracheal relaxant activity of VIP analogs on isolated guinea pig tracheal rings. The class given is cell-based. The note with it: cumulative concentration response; responses as % of maximum response to VIP (10^-6 M=100%); at least three tissues pooled; linear regression. On the procedure:
The relaxant activity of the VIP analogs was studied in a model utilizing guinea pig trachea. [Wasserman, M. A. et al., in Vasoactive Intestinal Peptide, S. I. Said, ed., Raven Press, N.Y. 1982, pp 177-184]; All tissues were taken from male albino guinea pig weighing 400-600 g, anesthesized with urethane (2 g/kg, i.p.). After exanguination, the trachea were removed and divided into four ring segments (3 mm length). Each ring was suspended by 30 gauge stainless steel wires in a 10 mL jacketed tissue bath and attached via 4-0 silk thread to a Grass force displacement transducer (model FT03C, Grass Instruments Co., Quincy, Ma), for isometric recording of tension. The smooth muscle was bathed in modified Krebs solution of the following composition: NaCl, 120 mM; KCl, 4.7 mM; CaCl2, 2.5 mM; MgSO.4 7H2 O, 1.2 mM; NaHCO3, 25 mM; K2 HPO4 monobasic, 1.2 mM; and dextrose, 10 mM. Tissue baths were maintained at 37° C. and constantly bubbled with 95% O2 and 5% CO2. Responses were recorded on an 8 channel and a 4 channel Hewlett-Packard (model 7702B and 7754A, respectively) recorder (Hewlett-Packard, Paramus, N.J.). […] Frequent readjustments of tension were required during the 60 minute stabilization period which followed. Tissues were rinsed at 15 minute intervals.
Cumulative concentration response curves were obtained for each tissue by successive […] increases in the bath concentration of VIP or VIP analogs according to the method of VanRossum [Arch. Int. Pharmacodyn., 143, 299-330 (1963)]. Only one cumulative dose response curve was obtained on a single tissue. To minimize variability between tissues, relaxant responses were expressed as a percentage of the maximum response obtained to VIP (10^-6 M=100%) added at the end of each concentration response experiment. Responses obtained from at least three tissues were pooled and EC50 values were determined by linear regression.

*1 amine or outer side, *2 acyl side, *3 side chain or, on linkers, in order; H or OH if unused. [ ]: non-standard residue; d: D form. The star is where a group is joined. Cys(Acm) = CC(=O)NCSC[C@H](N[*:1])C(=O)[*:2]; Phe(4-NH2) = Nc1ccc(C[C@H](N)C(=O)O)cc1; Phe(4-F) = N[C@@H](Cc1ccc(F)cc1)C(=O)O; Nle = CCCC[C@H](N)C(=O)O; Orn = NCCC[C@H](N)C(=O)O; Acm = CC(=O)NC*

“Ac--[p-F--Phe^6, p-NH2 --Phe^10, Lys^12, Nle^17, Val^26, Thr^28 ]--VIP (Ac-HSDAV[Phe(4-F)]TDN[Phe(4-NH2)]TKLRKQ[Nle]AVKKYLNSVLT-NH2; SMILES CCCC[C@H](NC(=O)[C@H](CCC(N)=O)NC(=O)[C@H](CCCCN)NC(=O)[C@H](CCCNC(=N)N)NC(=O)[C@H](CC(C)C)NC(=O)[C@H](CCCCN)NC(=O)[C@@H](NC(=O)[C@H](Cc1ccc(N)cc1)NC(=O)[C@H](CC(N)=O)NC(=O)[C@H](CC(=O)O)NC(=O)[C@@H](NC(=O)[C@H](Cc1ccc(F)cc1)NC(=O)[C@@H](NC(=O)[C@H](C)NC(=O)[C@H](CC(=O)O)NC(=O)[C@H](CO)NC(=O)[C@H](Cc1c[nH]cn1)NC(C)=O)C(C)C)[C@@H](C)O)[C@@H](C)O)C(=O)N[C@@H](C)C(=O)N[C@H](C(=O)N[C@@H](CCCCN)C(=O)N[C@@H](CCCCN)C(=O)N[C@@H](Cc1ccc(O)cc1)C(=O)N[C@@H](CC(C)C)C(=O)N[C@@H](CC(N)=O)C(=O)N[C@@H](CO)C(=O)N[C@H](C(=O)N[C@@H](CC(C)C)C(=O)N[C@H](C(N)=O)[C@@H](C)O)C(C)C)C(C)C) [Ac--(SEQ ID NO: 68)--NH2]”: the “Bronchodilator activity in guinea pigs, ED50” value (“Bronchodilator activity” for short) in the test with guinea pigs is 3.0 µg. The same substance returned a half-maximal effective concentration (EC50) in test [1] of 1.2 nM. For “Ac--[Lys^12, Nle^17, Ala^19, Ala^25, Leu^26, Lys^27,28, Ala^29-31 ]--VIP (Ac-HSDAVFTDNYTKLRKQ[Nle]AAKKYLNALKKAAA-NH2; SMILES CCCC[C@H](NC(=O)[C@H](CCC(N)=O)NC(=O)[C@H](CCCCN)NC(=O)[C@H](CCCNC(=N)N)NC(=O)[C@H](CC(C)C)NC(=O)[C@H](CCCCN)NC(=O)[C@@H](NC(=O)[C@H](Cc1ccc(O)cc1)NC(=O)[C@H](CC(N)=O)NC(=O)[C@H](CC(=O)O)NC(=O)[C@@H](NC(=O)[C@H](Cc1ccccc1)NC(=O)[C@@H](NC(=O)[C@H](C)NC(=O)[C@H](CC(=O)O)NC(=O)[C@H](CO)NC(=O)[C@H](Cc1c[nH]cn1)NC(C)=O)C(C)C)[C@@H](C)O)[C@@H](C)O)C(=O)N[C@@H](C)C(=O)N[C@@H](C)C(=O)N[C@@H](CCCCN)C(=O)N[C@@H](CCCCN)C(=O)N[C@@H](Cc1ccc(O)cc1)C(=O)N[C@@H](CC(C)C)C(=O)N[C@@H](CC(N)=O)C(=O)N[C@@H](C)C(=O)N[C@@H](CC(C)C)C(=O)N[C@@H](CCCCN)C(=O)N[C@@H](CCCCN)C(=O)N[C@@H](C)C(=O)N[C@@H](C)C(=O)N[C@@H](C)C(N)=O) [Ac--(SEQ ID NO: 22)--NH2]”, in the test on guinea pigs, the “Bronchodilator activity” value worked out at 0.046 µg. For the same substance, the midpoint of the response in test [1], the EC50, lay at 0.24 nM. For “Ac--[p-F--Phe^6, Glu^8, Lys^12, Nle^17, Val^26, Thr^28, Gly^29,30, Thr^31 ]--VIP (Ac-HSDAV[Phe(4-F)]TENYTKLRKQ[Nle]AVKKYLNSVLTGGT-NH2; SMILES CCCC[C@H](NC(=O)[C@H](CCC(N)=O)NC(=O)[C@H](CCCCN)NC(=O)[C@H](CCCNC(=N)N)NC(=O)[C@H](CC(C)C)NC(=O)[C@H](CCCCN)NC(=O)[C@@H](NC(=O)[C@H](Cc1ccc(O)cc1)NC(=O)[C@H](CC(N)=O)NC(=O)[C@H](CCC(=O)O)NC(=O)[C@@H](NC(=O)[C@H](Cc1ccc(F)cc1)NC(=O)[C@@H](NC(=O)[C@H](C)NC(=O)[C@H](CC(=O)O)NC(=O)[C@H](CO)NC(=O)[C@H](Cc1c[nH]cn1)NC(C)=O)C(C)C)[C@@H](C)O)[C@@H](C)O)C(=O)N[C@@H](C)C(=O)N[C@H](C(=O)N[C@@H](CCCCN)C(=O)N[C@@H](CCCCN)C(=O)N[C@@H](Cc1ccc(O)cc1)C(=O)N[C@@H](CC(C)C)C(=O)N[C@@H](CC(N)=O)C(=O)N[C@@H](CO)C(=O)N[C@H](C(=O)N[C@@H](CC(C)C)C(=O)N[C@H](C(=O)NCC(=O)NCC(=O)N[C@H](C(N)=O)[C@@H](C)O)[C@@H](C)O)C(C)C)C(C)C) [Ac--(SEQ ID NO: 14)--NH2]” the same measures were 0.1 µg and 0.32 nM. For “Ac--[Glu^8, Lys^12, Nle^17, Val^26, Thr^28, Gly^29,30, Met^31 ]--VIP (Ac-HSDAVFTENYTKLRKQ[Nle]AVKKYLNSVLTGGM-NH2; SMILES CCCC[C@H](NC(=O)[C@H](CCC(N)=O)NC(=O)[C@H](CCCCN)NC(=O)[C@H](CCCNC(=N)N)NC(=O)[C@H](CC(C)C)NC(=O)[C@H](CCCCN)NC(=O)[C@@H](NC(=O)[C@H](Cc1ccc(O)cc1)NC(=O)[C@H](CC(N)=O)NC(=O)[C@H](CCC(=O)O)NC(=O)[C@@H](NC(=O)[C@H](Cc1ccccc1)NC(=O)[C@@H](NC(=O)[C@H](C)NC(=O)[C@H](CC(=O)O)NC(=O)[C@H](CO)NC(=O)[C@H](Cc1c[nH]cn1)NC(C)=O)C(C)C)[C@@H](C)O)[C@@H](C)O)C(=O)N[C@@H](C)C(=O)N[C@H](C(=O)N[C@@H](CCCCN)C(=O)N[C@@H](CCCCN)C(=O)N[C@@H](Cc1ccc(O)cc1)C(=O)N[C@@H](CC(C)C)C(=O)N[C@@H](CC(N)=O)C(=O)N[C@@H](CO)C(=O)N[C@H](C(=O)N[C@@H](CC(C)C)C(=O)N[C@H](C(=O)NCC(=O)NCC(=O)N[C@@H](CCSC)C(N)=O)[C@@H](C)O)C(C)C)C(C)C) [Ac--(SEQ ID NO: 9)--NH2]”, the “Bronchodilator activity” value in the test with guinea pigs is 1.7 µg.

On to “Ac--[Leu^5, Orn^12, Ala^17,19, Thr^25, Val^26, Thr^28, Gly^29,30, Cys(Acm)^31 ]--VIP (Ac-HSDALFTDNYT[Orn]LRKQAAAKYLNSTVNTGGC(Acm)-NH2; SMILES CC(=O)NCSC[C@H](NC(=O)CNC(=O)CNC(=O)[C@@H](NC(=O)[C@H](CC(N)=O)NC(=O)[C@@H](NC(=O)[C@@H](NC(=O)[C@H](CO)NC(=O)[C@H](CC(N)=O)NC(=O)[C@H](CC(C)C)NC(=O)[C@H](Cc1ccc(O)cc1)NC(=O)[C@H](CCCCN)NC(=O)[C@H](C)NC(=O)[C@H](C)NC(=O)[C@H](C)NC(=O)[C@H](CCC(N)=O)NC(=O)[C@H](CCCCN)NC(=O)[C@H](CCCNC(=N)N)NC(=O)[C@H](CC(C)C)NC(=O)[C@H](CCCN)NC(=O)[C@@H](NC(=O)[C@H](Cc1ccc(O)cc1)NC(=O)[C@H](CC(N)=O)NC(=O)[C@H](CC(=O)O)NC(=O)[C@@H](NC(=O)[C@H](Cc1ccccc1)NC(=O)[C@H](CC(C)C)NC(=O)[C@H](C)NC(=O)[C@H](CC(=O)O)NC(=O)[C@H](CO)NC(=O)[C@H](Cc1c[nH]cn1)NC(C)=O)[C@@H](C)O)[C@@H](C)O)[C@@H](C)O)C(C)C)[C@@H](C)O)C(N)=O) [Ac--(SEQ ID NO: 8)--NH2]”, for which the “Bronchodilator activity” value in the test with guinea pigs came out at 0.28 µg. Turning to “Ac--[p-F--Phe^6, Lys^12, Nle^17, Ala^19, Val^26, Thr^28, Gly^29,30, Cys(Acm)^31 ]--VIP (Ac-HSDAV[Phe(4-F)]TDNYTKLRKQ[Nle]AAKKYLNSVLTGG[Cys(Acm)]-NH2; SMILES CCCC[C@H](NC(=O)[C@H](CCC(N)=O)NC(=O)[C@H](CCCCN)NC(=O)[C@H](CCCNC(=N)N)NC(=O)[C@H](CC(C)C)NC(=O)[C@H](CCCCN)NC(=O)[C@@H](NC(=O)[C@H](Cc1ccc(O)cc1)NC(=O)[C@H](CC(N)=O)NC(=O)[C@H](CC(=O)O)NC(=O)[C@@H](NC(=O)[C@H](Cc1ccc(F)cc1)NC(=O)[C@@H](NC(=O)[C@H](C)NC(=O)[C@H](CC(=O)O)NC(=O)[C@H](CO)NC(=O)[C@H](Cc1c[nH]cn1)NC(C)=O)C(C)C)[C@@H](C)O)[C@@H](C)O)C(=O)N[C@@H](C)C(=O)N[C@@H](C)C(=O)N[C@@H](CCCCN)C(=O)N[C@@H](CCCCN)C(=O)N[C@@H](Cc1ccc(O)cc1)C(=O)N[C@@H](CC(C)C)C(=O)N[C@@H](CC(N)=O)C(=O)N[C@@H](CO)C(=O)N[C@H](C(=O)N[C@@H](CC(C)C)C(=O)N[C@H](C(=O)NCC(=O)NCC(=O)N[C@@H](CSCNC(C)=O)C(N)=O)[C@@H](C)O)C(C)C) [Ac--(SEQ ID NO: 76)--NH2]”, in the test on guinea pigs, the “Bronchodilator activity” value turned out to be 017 µg.

As a reminder, the EC50 is the concentration giving half of the maximal effect. Higher therefore signals a need for much substance.
